“And” between values parts separate entries of the source, which are not always exact repeats. Equal entries are not always repeated. Inconclusive results and toxic doses are left out.
System: CD2F1 mice, L1210 leukemia ip, survival T/C
Assay: NCI In Vivo Anticancer Drug Screen. Data for tumor model L1210 Leukemia (intraperitoneal) in CD2F1 (CDF1) mice
Conditions: higher = longer survival
Method in brief: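 Ratio T/C, where T is the treated-group value and C the vehicle-dosed control value, from mice implanted with a transplantable tumor.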

[1] = endpoint: mean survival time, dose: 100.0 mg/kg/injection, schedule: Q04DX002 (ip), vehicle: saline with Tween-80
[2] = endpoint: mean survival time, dose: 100.0 mg/kg/injection, schedule: Q01DX009 (ip), vehicle: other
[3] = endpoint: mean survival time, dose: 200.0 mg/kg/injection, schedule: Q01DX009 (ip), vehicle: other
[4] = endpoint: mean survival time, dose: 100.0 mg/kg/injection, schedule: Q01DX001 (ip), vehicle: saline with Tween-80
[5] = endpoint: mean survival time, dose: 200.0 mg/kg/injection, schedule: Q01DX001 (ip), vehicle: saline with Tween-80

For `CN(C)c1nc(-c2ccncc2)nc(N(C)C)n1`, which T/C [1] is on record?
Its T/C is 92 % of control.

Which T/C (endpoint: mean survival time, dose: 12.5 mg/kg/injection, schedule: Q01DX009 (ip), vehicle: other) does the source give for `O=C1c2ccccc2C(=O)c2c(O)c(CCCN3C(=O)c4ccccc4C3=O)cc(O)c21` here?
The T/C was 89 % of control.

What about the T/C (endpoint: mean survival time, dose: 25.0 mg/kg/injection, schedule: Q01DX009 (ip), vehicle: other) of the same molecule?
Its T/C is 87 % of control.

And the T/C (endpoint: mean survival time, dose: 50.0 mg/kg/injection, schedule: Q01DX009 (ip), vehicle: other)?
The T/C was 87 % of control.

What about the T/C [2] of the same molecule?
Its T/C is 89 % of control.

What about the T/C [3] of the same molecule?
The T/C was 97 % of control.

Which T/C (endpoint: mean survival time, dose: 100.0 mg/kg/injection, schedule: Q01DX001 (ip), vehicle: saline) does the source give for `N=C1N(c2ccc(C(=O)NC(CCC(=O)O)C(=O)O)cc2)CC2CNc3nc(N)[nH]c(=O)c3N12` (stereo unspecified) here?
Its T/C is 100 % of control.

What about the T/C (endpoint: mean survival time, dose: 200.0 mg/kg/injection, schedule: Q01DX001 (ip), vehicle: saline) of the same molecule?
Its T/C is 93 % of control.

And the T/C (endpoint: mean survival time, dose: 400.0 mg/kg/injection, schedule: Q01DX001 (ip), vehicle: saline)?
Its T/C is 104 % of control.

Which results are given for `C=CN1CCCC1=O`?
T/C (endpoint: mean survival time, dose: 100.0 mg/kg/injection, schedule: Q04DX003 (ip), vehicle: saline with Tween-80): 98 % of control; T/C (endpoint: mean survival time, dose: 200.0 mg/kg/injection, schedule: Q04DX003 (ip), vehicle: saline with Tween-80): 101 % of control; T/C (endpoint: mean survival time, dose: 400.0 mg/kg/injection, schedule: Q04DX003 (ip), vehicle: saline with Tween-80): 95 % of control; T/C (endpoint: mean survival time, dose: 1400.0 mg/kg/injection, schedule: Q01DX001 (ip), vehicle: saline): 101 % of control; T/C (endpoint: mean survival time, dose: 1600.0 mg/kg/injection, schedule: Q01DX001 (ip), vehicle: saline): 110 % of control; T/C (endpoint: mean survival time, dose: 1800.0 mg/kg/injection, schedule: Q01DX001 (ip), vehicle: saline): 117 % of control; T/C (endpoint: mean survival time, dose: 2000.0 mg/kg/injection, schedule: Q01DX001 (ip), vehicle: saline): 114 % of control; T/C (endpoint: median survival time, dose: 1.9 grams/kg/injection, schedule: Q01DX001 (iv), vehicle: saline): 100 % of control; T/C (endpoint: median survival time, dose: 1.9 grams/kg/injection, schedule: Q01DX005 (iv), vehicle: saline): 112 % of control; T/C (endpoint: median survival time, dose: 1.9 grams/kg/injection, schedule: Q03HX008 (ip), vehicle: saline): 112 % of control; T/C (endpoint: median survival time, dose: 1.9 grams/kg/injection, schedule: Q03HX016 (ip), vehicle: saline): 106 % of control; T/C (endpoint: median survival time, dose: 1.9 grams/kg/injection, schedule: Q03HX024 (ip), vehicle: saline): 112 % of control; T/C (endpoint: median survival time, dose: 1.9 grams/kg/injection, schedule: Q04DX003 (iv), vehicle: saline): 112 % of control; T/C (endpoint: median survival time, dose: 3.8 grams/kg/injection, schedule: Q01DX001 (ip), vehicle: saline): 112 % of control; T/C (endpoint: median survival time, dose: 3.8 grams/kg/injection, schedule: Q01DX001 (iv), vehicle: saline): 100 % of control; T/C (endpoint: median survival time, dose: 3.8 grams/kg/injection, schedule: Q01DX005 (ip), vehicle: saline): 100 % of control; T/C (endpoint: median survival time, dose: 3.8 grams/kg/injection, schedule: Q01DX005 (iv), vehicle: saline): 100 % of control; T/C (endpoint: median survival time, dose: 3.8 grams/kg/injection, schedule: Q01DX009 (ip), vehicle: saline): 100 % of control; T/C (endpoint: median survival time, dose: 3.8 grams/kg/injection, schedule: Q03HX008 (ip), vehicle: saline): 112 % of control; T/C (endpoint: median survival time, dose: 3.8 grams/kg/injection, schedule: Q03HX016 (ip), vehicle: saline): 112 % of control; T/C (endpoint: median survival time, dose: 3.8 grams/kg/injection, schedule: Q03HX024 (ip), vehicle: saline): 112 % of control; T/C (endpoint: median survival time, dose: 3.8 grams/kg/injection, schedule: Q04DX003 (ip), vehicle: saline): 106 % of control; T/C (endpoint: median survival time, dose: 3.8 grams/kg/injection, schedule: Q04DX003 (iv), vehicle: saline): 112 % of control; T/C (endpoint: median survival time, dose: 3.8 grams/kg/injection, schedule: Q08DX002 (ip), vehicle: saline): 106 % of control; T/C (endpoint: median survival time, dose: 7.5 grams/kg/injection, schedule: Q01DX001 (ip), vehicle: saline): 100 % of control; T/C (endpoint: median survival time, dose: 7.5 grams/kg/injection, schedule: Q01DX001 (iv), vehicle: saline): 100 % of control; T/C (endpoint: median survival time, dose: 7.5 grams/kg/injection, schedule: Q01DX005 (ip), vehicle: saline): 112 % of control; T/C (endpoint: median survival time, dose: 7.5 grams/kg/injection, schedule: Q01DX005 (iv), vehicle: saline): 106 % of control; T/C (endpoint: median survival time, dose: 7.5 grams/kg/injection, schedule: Q01DX009 (ip), vehicle: saline): 100 % of control; T/C (endpoint: median survival time, dose: 7.5 grams/kg/injection, schedule: Q03HX008 (ip), vehicle: saline): 112 % of control; T/C (endpoint: median survival time, dose: 7.5 grams/kg/injection, schedule: Q04DX003 (ip), vehicle: saline): 100 % of control; T/C (endpoint: median survival time, dose: 7.5 grams/kg/injection, schedule: Q04DX003 (iv), vehicle: saline): 106 % of control; T/C (endpoint: median survival time, dose: 7.5 grams/kg/injection, schedule: Q08DX002 (ip), vehicle: saline): 112 % of control; T/C (endpoint: median survival time, dose: 15.0 grams/kg/injection, schedule: Q01DX001 (ip), vehicle: saline): 112 % of control; T/C (endpoint: median survival time, dose: 15.0 grams/kg/injection, schedule: Q01DX009 (ip), vehicle: saline): 118 % of control; T/C (endpoint: median survival time, dose: 15.0 grams/kg/injection, schedule: Q04DX003 (ip), vehicle: saline): 112 % of control; T/C (endpoint: median survival time, dose: 15.0 grams/kg/injection, schedule: Q08DX002 (ip), vehicle: saline): 106 % of control

Which results are given for `CCCCCCCCC(O)CCC` (stereo unspecified)?
T/C (endpoint: mean survival time, dose: 100.0 mg/kg/injection, schedule: Q04DX003 (ip), vehicle: saline): 96 % of control; T/C (endpoint: mean survival time, dose: 200.0 mg/kg/injection, schedule: Q04DX003 (ip), vehicle: saline): 98 % of control; T/C (endpoint: mean survival time, dose: 400.0 mg/kg/injection, schedule: Q04DX003 (ip), vehicle: saline): 100 % of control

How did the T/C (endpoint: mean survival time, dose: 50.0 mg/kg/injection, schedule: Q01DX009 (ip), vehicle: saline with Tween-80) turn out when `Cc1ccc2nc(-c3ccc4nc(-c5ccc(N)cc5)sc4c3)sc2c1` was run?
Its T/C is 94 % of control.

And the T/C (endpoint: mean survival time, dose: 100.0 mg/kg/injection, schedule: Q01DX009 (ip), vehicle: saline with Tween-80)?
The T/C was 97 % of control.

What about the T/C (endpoint: mean survival time, dose: 200.0 mg/kg/injection, schedule: Q01DX009 (ip), vehicle: saline with Tween-80) of the same molecule?
The T/C was 94 % of control.

What does the source list for `c1ccc2ncccc2c1`?
T/C [2]: 103 % of control; T/C [3]: 101 % of control

Which T/C (endpoint: mean survival time, dose: 50.0 mg/kg/injection, schedule: Q04DX002 (ip), vehicle: saline with Tween-80) does the source give for `COc1c(NC(=O)Nc2ccccc2C)cccc1[N+](=O)[O-]` here?
Its T/C is 94 % of control.

And the T/C [1]?
The T/C was 90 % of control and 96 % of control.

What does the source list for `NC(Cc1ccccc1)C(=O)OCN1C(=O)C2C3C=CC(C2C1=O)C1C2C(=O)N(COC(=O)C(N)Cc4ccccc4)C(=O)C2C31` (stereo unspecified)?
T/C (endpoint: median survival time, dose: 21.6 mg/kg/injection, schedule: Q01DX009 (ip), vehicle: water): 116 % of control; T/C (endpoint: median survival time, dose: 36.0 mg/kg/injection, schedule: Q01DX009 (ip), vehicle: water): 117 % of control; T/C (endpoint: median survival time, dose: 100.0 mg/kg/injection, schedule: Q01DX009 (ip), vehicle: water): 188 % of control

For `CC(C)CCCCCOC(=O)Nc1cccc2ccccc12`, which T/C [4] is on record?
The T/C was 92 % of control.

What about the T/C [5] of the same molecule?
The T/C was 89 % of control.

And the T/C (endpoint: mean survival time, dose: 400.0 mg/kg/injection, schedule: Q01DX001 (ip), vehicle: saline with Tween-80)?
The T/C was 92 % of control.

Which results are given for `c1ccc2cc(-c3cc4ccccc4s3)ccc2c1`?
T/C (endpoint: mean survival time, dose: 264.0 mg/kg/injection, schedule: Q01DX009 (ip), vehicle: saline with Tween-80): 104 % of control; T/C (endpoint: mean survival time, dose: 400.0 mg/kg/injection, schedule: Q01DX009 (ip), vehicle: saline with Tween-80): 98 % of control

For `O=C(CCl)c1ccc(O)c(O)c1`, which T/C (endpoint: mean survival time, dose: 6.25 mg/kg/injection, schedule: Q04DX003 (ip), vehicle: saline) is on record?
The T/C was 94 % of control.

And the T/C (endpoint: mean survival time, dose: 12.5 mg/kg/injection, schedule: Q04DX003 (ip), vehicle: saline)?
Its T/C is 92 % of control.

And the T/C (endpoint: mean survival time, dose: 25.0 mg/kg/injection, schedule: Q04DX003 (ip), vehicle: saline)?
The T/C was 92 % of control.

Which T/C (endpoint: mean survival time, dose: 12.5 mg/kg/injection, schedule: Q01DX009 (ip), vehicle: olive oil, sesame oil, peanut oil) does the source give for `COc1cccc(/C=N/C(=S)NC2(C)C3CCC(C3)C2(C)C)c1O` (stereo unspecified) here?
The T/C was 98 % of control.

What about the T/C (endpoint: mean survival time, dose: 25.0 mg/kg/injection, schedule: Q01DX009 (ip), vehicle: olive oil, sesame oil, peanut oil) of the same molecule?
The T/C was 96 % of control.

And the T/C (endpoint: mean survival time, dose: 50.0 mg/kg/injection, schedule: Q01DX009 (ip), vehicle: olive oil, sesame oil, peanut oil)?
The T/C was 90 % of control.

And the T/C (endpoint: mean survival time, dose: 100.0 mg/kg/injection, schedule: Q01DX009 (ip), vehicle: olive oil, sesame oil, peanut oil)?
Its T/C is 97 % of control.

And the T/C (endpoint: mean survival time, dose: 200.0 mg/kg/injection, schedule: Q01DX009 (ip), vehicle: olive oil, sesame oil, peanut oil)?
The T/C was 96 % of control.

And the T/C (endpoint: mean survival time, dose: 400.0 mg/kg/injection, schedule: Q01DX009 (ip), vehicle: olive oil, sesame oil, peanut oil)?
The T/C was 90 % of control.

With `N#CC1C(C#N)C1C#N` (stereo unspecified) as the molecule, how does the T/C [4] read?
The T/C was 98 % of control.

What about the T/C [5] of the same molecule?
The T/C was 98 % of control.

For `S=c1[nH]c2ccccc2[nH]c1=S`, which T/C (endpoint: mean survival time, dose: 10.0 mg/kg/injection, schedule: Q01DX001 (ip), vehicle: Klucel (hydroxypropylcellulose) (HPC)) is on record?
Its T/C is 103 % of control.

What about the T/C (endpoint: mean survival time, dose: 20.0 mg/kg/injection, schedule: Q01DX001 (ip), vehicle: Klucel (hydroxypropylcellulose) (HPC)) of the same molecule?
The T/C was 108 % of control.

Which T/C (endpoint: mean survival time, dose: 50.0 mg/kg/injection, schedule: Q01DX009 (ip), vehicle: saline) does the source give for `O=C(O)C(CSC(c1ccccc1)(c1ccccc1)c1ccccc1)NC(c1ccccc1)c1ccccc1` (stereo unspecified) here?
Its T/C is 101 % of control.

What about the T/C (endpoint: mean survival time, dose: 100.0 mg/kg/injection, schedule: Q01DX009 (ip), vehicle: saline) of the same molecule?
Its T/C is 98 % of control.

And the T/C (endpoint: mean survival time, dose: 200.0 mg/kg/injection, schedule: Q01DX009 (ip), vehicle: saline)?
The T/C was 101 % of control.

What about the T/C (endpoint: mean survival time, dose: 400.0 mg/kg/injection, schedule: Q01DX009 (ip), vehicle: saline) of the same molecule?
The T/C was 101 % of control.

— PubChem BioAssay AID256 (DTP/NCI, 2004)
